# Patent US9422254B2, “Methoxyacrylate-based fungicide and methods for preparing and using the same” (priority 2008, dated 2016)
# Values joined by “and” are separate entries in the source; they are usually repeats but may differ in a detail not shown here. Identical values can stand only once.
# Experiments:
# Phytophthora capsici = test: microbe, parasite or virus in culture; assay type: cell-based; settings: read-out: Inhibition rate (%)
# [1] = system: Botryosphaeria berengeriana; test: microbe, parasite or virus in culture; assay type: cell-based; settings: read-out: Inhibition rate (%)
# Cercospora arachidicola = test: microbe, parasite or virus in culture; assay type: cell-based; settings: Mycosphaerella arachidis, read-out: Inhibition rate (%)
# Acute oral test = assay type: in vivo, rat; settings: in vivo
# Experimental: (§1) The toxicological indexes of the compound were tested following the standard GB15670-1995 “Toxicological test methods of pesticides for registration” by Tongji Medical College, Huazhong University of Science and Technology.
# rat = test: Acute oral test; assay type: in vivo; settings: rat
# Experimental: as §1
# rabbit's skin = test: Skin stimulation test; assay type: in vivo
# Experimental: as §1
# mice spermatogonial = test: Chromosome aberration test of mice spermatogonial; assay type: in vivo
# Experimental: as §1
# [2] = Acute toxicity test on zebra fish; settings: in vivo
# Experimental: After acute toxicity and Ames test had been finished, environmental toxicity test was conducted following “Guideline for Environmental Safety Evaluation of Chemical Pesticides” of Agriculture Ministry of China by Shenyang Chemical Research Institute/Supervision and Test Center for Pesticide Safety Evaluation and Quality Control.
# NADH oxidase (NOX) = NADH oxidase (NOX) (Sus scrofa, UniProt P24964); test: Enzyme activity test, NOX; assay type: biochemical; settings: azoxystrobin as control agent
# NADH oxidase (NOX), sequence (P24964 whole entry): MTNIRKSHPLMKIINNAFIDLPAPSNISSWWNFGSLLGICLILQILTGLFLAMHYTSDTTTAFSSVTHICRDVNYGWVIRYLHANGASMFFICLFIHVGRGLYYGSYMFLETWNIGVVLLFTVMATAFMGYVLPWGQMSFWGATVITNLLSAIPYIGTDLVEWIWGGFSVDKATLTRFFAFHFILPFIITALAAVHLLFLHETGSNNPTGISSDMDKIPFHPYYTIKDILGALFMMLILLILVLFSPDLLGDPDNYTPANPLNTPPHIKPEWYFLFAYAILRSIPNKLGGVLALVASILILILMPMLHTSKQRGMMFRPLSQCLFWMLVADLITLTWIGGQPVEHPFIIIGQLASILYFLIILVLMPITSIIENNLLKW
# Experimental: (§2) Take NADH oxidase (NOX), succinate-cytochrome C oxidase (SCO), and Complex III as target enzymes, the inhibitory activity of the compound of Formula (I) was tested.
# ^a NOX is generally used to detect an inhibitor of Complex I and Complex III; SCO is generally used to detect an inhibitor of Complex II and Complex III. Thus, an inhibitor of Complex III should have inhibitory activity on the two enzymes.
# [3] = molecular target: T1, cytochrome bc1 complex of pig heart (Sus scrofa, UniProt P24964); test: Enzyme activity test, Complex III; assay type: biochemical
# T1 construct: The test target is cytochrome bc1 complex of pig heart; from tissue; host or cells: pig heart
# T1 sequence (P24964 whole entry, one chain of several): as the sequence (P24964 whole entry) above
# Experimental: as §2
# ^b The test target is cytochrome bc1 complex of pig heart.
# cucumber downy mildew = test: Field efficacy trial of emulsifier concentrate 1, cucumber downy mildew; assay type: in vivo
# Experimental: (§3) To a beaker (1000 mL), 50 g (100% basis) of the compound of Formula (I), 150 g of DMF, and 50 g of acetone were added and stirred for dissolution. To the solution, 25 g of pesticide emulsifier No. 500 and 50 g of Tween 80, 20 g of epoxidized soybean oil, and […] of toluene were added. Thus, the emulsifier concentrate 1 having 5 wt. % of the compound of Formula (I) was obtained and further packed.
# (§4) On the basis of indoor activity evaluation, field efficacy trials of the compound of Formula (I) on cucumber downy mildew, cucumber powdery mildew, and melon powdery mildew were conducted.
# melon powdery mildew = test: Field efficacy trial of emulsifier concentrate 1, melon powdery mildew; assay type: in vivo
# Experimental: as §3, §4
# [4] = system: Cucumber gray mold (F-109); test: In vivo micro-screening assay
# Experimental: In Vivo Micro-Screening Assay
# (§5) To further study the fungicidal spectrum of the compound of Formula (I), indoor in vivo micro-screening assay were carried out on cucumber gray mold, cucumber scab, cucumber sclerotinia rot, cucumber brown spot, pepper phytophthora blight, and rice sheath blight.
# (§6) Medicament to be tested and medicament of control groups were prepared as needed in a sunny morning. Cucumber gray mold, cucumber scab, cucumber brown spot, cucumber sclerotinia rot, and rice sheath blight were medicated by spray, and after air dry, pathogens of cucumber scab and of cucumber brown spot were inoculated through spraying spore suspension respectively, pathogens of cucumber gray mold, of cucumber sclerotinia rot, and of rice sheath blight were inoculated through lawn foliage. Pepper phytophthora blight was medicated and inoculated by root-irrigation. Subsequently, all seedlings were cultured in wet environment.
# (§7) After the disease of control groups were serious, spot area, disease index, and the diseased seedling rate were investigated to calculate the efficacy. Cucumber scab, cucumber brown spot, and pepper phytophthora blight were investigated by grading method. The spot extension area of cucumber gray mold and of rice sheath blight was investigated. The diseased seedling rate of cucumber sclerotinia rot was investigated. Disease index=Σ(amount of infected diseased leaves in a grade×relative value of the grade)×100/(total amount of leaves×9); Diseased seedling rate (%)=(total amount of seedlings−amount of diseased seedlings)/total amount of seedlings×100% Prevention and treatment effect (%)=(disease of control group−disease of experiment group)/disease of control group×100%
# [5] = system: Cucumber gray mold (SC504002); test: In vivo micro-screening assay
# Experimental: In Vivo Micro-Screening Assay
# as §5, §6, §7
# [6] = system: Cucumber gray mold (Q503001); test: In vivo micro-screening assay
# Experimental: In Vivo Micro-Screening Assay
# as §5, §6, §7
# [7] = system: Cucumber sclerotinia rot (strain HGJH); test: In vivo micro-screening assay
# Experimental: In Vivo Micro-Screening Assay
# as §5
# Cucumber scab strain: HX; cucumber brown spot strain: SDHGHB060509; cucumber sclerotinia rot strain: HGJH; pepper phytophthora blight strain: NSGP; and rice sheath blight strain: WK-1.
# as §6, §7
# [8] = 25 mg/L, 5th day after third administration, Average
# [9] = 25 mg/L, 5th day after third administration, No. 1-3
# [10] = 25 mg/L, 9th day after third administration, Average
# [11] = 25 mg/L, 9th day after third administration, No. 1-3
# [12] = 25 mg/L, 12th day after second administration, Average
# [13] = 25 mg/L, 12th day after second administration, No. 1-3
# [14] = 50 mg/L, 5th day after third administration, Average
# [15] = 50 mg/L, 5th day after third administration, No. 1-3
# [16] = 50 mg/L, 9th day after third administration, Average
# [17] = 50 mg/L, 9th day after third administration, No. 1-3
# [18] = 50 mg/L, 12th day after second administration, Average
# [19] = 50 mg/L, 12th day after second administration, No. 1-3
# [20] = 100 mg/L, 5th day after third administration, Average
# [21] = 100 mg/L, 5th day after third administration, No. 1-3
# [22] = 100 mg/L, 9th day after third administration, Average
# [23] = 100 mg/L, 9th day after third administration, No. 1-3
# [24] = 100 mg/L, 12th day after second administration, Average
# [25] = 12.5 mg/L, 7th day after first administration
# [26] = 12.5 mg/L, 7th day after second administration
# [27] = 12.5 mg/L, 14th day after second administration
# [28] = 25 mg/L, 7th day after first administration
# [29] = 25 mg/L, 7th day after second administration
# [30] = 25 mg/L, 14th day after second administration
# [31] = 50 mg/L, 7th day after first administration
# [32] = 50 mg/L, 7th day after second administration
# [33] = 50 mg/L, 14th day after second administration
# [34] = 100 mg/L, 7th day after first administration
# [35] = 100 mg/L, 7th day after second administration
# [36] = 100 mg/L, 14th day after second administration
smiles,measurement,setting,value
"CO/C=C(/C(=O)OC)c1ccccc1CSc1nc2cc(OC)ccc2s1 [Compound of Formula (I), (E)-methyl 3-methoxy-2-(2-((5-methoxy-benzothiazol-2-ylthio)methyl)phenyl)acrylate]",inhibition at 0.3 µg/mL,Phytophthora capsici; 0.3 mg/L,0%
same,inhibition at 3 µg/mL,Phytophthora capsici; 3 mg/L,23.1%
same,inhibition at 30 µg/mL,Phytophthora capsici; 30 mg/L,28.9%
same,inhibition at 0.3 µg/mL,[1]; 0.3 mg/L,44.1%
same,inhibition at 3 µg/mL,[1]; 3 mg/L,49.6%
same,inhibition at 30 µg/mL,[1]; 30 mg/L,63.6%
same,inhibition at 0.3 µg/mL,Cercospora arachidicola; 0.3 mg/L,30.9%
same,inhibition at 3 µg/mL,Cercospora arachidicola; 3 mg/L,35.7%
same,inhibition at 30 µg/mL,Cercospora arachidicola; 30 mg/L,40.5%
same,LD50,Acute oral test; Female rat,> 5000 mg/kg
same,LD50,Acute oral test; Male rat,> 5000 mg/kg
same,Toxicity (acute oral test),rat,Low toxicity
same,Skin stimulation,rabbit's skin,No stimulation on rabbit's skin
same,Chromosome aberration test of mice spermatogonial,mice spermatogonial,Negative
same,LC50 at 24 h,[2]; 24 hrs,0.069 µg/mL
same,LC50 at 48 h,[2]; 48 hrs,0.06 µg/mL
same,LC50 at 72 h,[2]; 72 hrs,0.047 µg/mL
same,LC50 at 96 h,[2]; 96 hrs,0.043 µg/mL
same,inhibitory activity on NOX compared with azoxystrobin,NADH oxidase (NOX),much higher inhibitory activity
same,IC50,[3],4 nM
same,inhibitory activity on Complex III compared with azoxystrobin,[3]; azoxystrobin as control agent,much higher inhibitory activity
same,Disease index,cucumber downy mildew; [8],4.75
same,Efficacy (%),cucumber downy mildew; [8],58.99%
same,Disease index,cucumber downy mildew; [9],4.86 and 4.51
same,Efficacy (%),cucumber downy mildew; [9],57.99% and 60.99%
same,Disease index,cucumber downy mildew; [10],11.50
same,Efficacy (%),cucumber downy mildew; [10],68.89%
same,Disease index,cucumber downy mildew; [11],12.04 and 10.42
same,Efficacy (%),cucumber downy mildew; [11],67.43% and 71.82%
same,Disease index,cucumber downy mildew; [12],1.85
same,Efficacy (%),cucumber downy mildew; [12],69.24%
same,Disease index,cucumber downy mildew; [13],1.74 and 2.08
same,Efficacy (%),cucumber downy mildew; [13],71.16% and 65.39%
same,Disease index,cucumber downy mildew; [14],3.94
same,Efficacy (%),cucumber downy mildew; [14],65.99%
same,Disease index,cucumber downy mildew; [15],3.47 and 4.51 and 3.82
same,Efficacy (%),cucumber downy mildew; [15],69.99% and 60.99% and 66.99%
same,Disease index,cucumber downy mildew; [16],8.72
same,Efficacy (%),cucumber downy mildew; [16],76.41%
same,Disease index,cucumber downy mildew; [17],10.65 and 7.18 and 8.33
same,Efficacy (%),cucumber downy mildew; [17],71.19% and 80.58% and 77.45%
same,Disease index,cucumber downy mildew; [18],1.39
same,Efficacy (%),cucumber downy mildew; [18],76.93%
same,Disease index,cucumber downy mildew; [19],1.04 and 1.74 and 1.39
same,Efficacy (%),cucumber downy mildew; [19],82.70% and 71.16% and 76.93%
same,Disease index,cucumber downy mildew; [20],2.55
same,Efficacy (%),cucumber downy mildew; [20],77.99%
same,Disease index,cucumber downy mildew; [21],2.08 and 2.43 and 3.13
same,Efficacy (%),cucumber downy mildew; [21],81.99% and 78.99% and 72.99%
same,Disease index,cucumber downy mildew; [22],7.10
same,Efficacy (%),cucumber downy mildew; [22],80.79%
same,Disease index,cucumber downy mildew; [23],8.10 and 7.18 and 6.02
same,Efficacy (%),cucumber downy mildew; [23],78.08% and 80.58% and 83.72%
same,Disease index,cucumber downy mildew; [24],1.02
same,Efficacy (%),cucumber downy mildew; [24],83.04%
same,Efficacy (%),"cucumber downy mildew; 100 mg/L, 12th day after second administration, No. 1-3",83.71% and 76.93% and 88.46%
same,Disease index,melon powdery mildew; [25],8.80
same,Efficacy (%),melon powdery mildew; [25],27.16%
same,Disease index,melon powdery mildew; [26],13.44
same,Efficacy (%),melon powdery mildew; [26],61.65%
same,Disease index,melon powdery mildew; [27],40.33
same,Efficacy (%),melon powdery mildew; [27],29.55%
same,Disease index,melon powdery mildew; [28],7.11
same,Efficacy (%),melon powdery mildew; [28],34.38%
same,Disease index,melon powdery mildew; [29],13.63
same,Efficacy (%),melon powdery mildew; [29],67.15%
same,Disease index,melon powdery mildew; [30],31.50
same,Efficacy (%),melon powdery mildew; [30],47.00%
same,Disease index,melon powdery mildew; [31],7.92
same,Efficacy (%),melon powdery mildew; [31],35.77%
same,Disease index,melon powdery mildew; [32],10.88
same,Efficacy (%),melon powdery mildew; [32],75.54%
same,Disease index,melon powdery mildew; [33],30.42
same,Efficacy (%),melon powdery mildew; [33],54.57%
same,Disease index,melon powdery mildew; [34],6.29
same,Efficacy (%),melon powdery mildew; [34],39.15%
same,Disease index,melon powdery mildew; [35],4.52
same,Efficacy (%),melon powdery mildew; [35],86.22%
same,Disease index,melon powdery mildew; [36],19.45
same,Efficacy (%),melon powdery mildew; [36],63.47%
same,Efficacy (%),[4]; 100 mg/L,92.19%
same,Spot area (mm^2),[4]; 100 mg/L,8.03 mm^2
same,Efficacy (%),[4]; 500 mg/L,96.43%
same,Spot area (mm^2),[4]; 500 mg/L,3.67 mm^2
same,prevention and treatment effect,"[4]; cucumber gray mold, strains not distinguished",good prevention and treatment effect
same,Efficacy (%),[5]; 100 mg/L,88.71%
same,Spot area (mm^2),[5]; 100 mg/L,6.82 mm^2
same,Efficacy (%),[5]; 500 mg/L,90.67%
same,Spot area (mm^2),[5]; 500 mg/L,5.64 mm^2
same,Efficacy (%),[6]; 100 mg/L,93.69%
same,Spot area (mm^2),[6]; 100 mg/L,7.78 mm^2
same,Efficacy (%),[6]; 500 mg/L,97.71%
same,Spot area (mm^2),[6]; 500 mg/L,2.82 mm^2
same,Efficacy (%),[7]; 100 mg/L,16.84%
same,Spot area (mm^2),[7]; 100 mg/L,70.08 mm^2
same,Efficacy (%),[7]; 500 mg/L,58.88%
same,Spot area (mm^2),[7]; 500 mg/L,34.65 mm^2
